Data taken from US8084593B2, “Polynucleotide encoding a TRIM-Cyp polypeptide, compositions thereof, and methods of using same” (The Trustees of Columbia University in the City of New York, priority 2004, dated 2011).
“Also recorded” adds a separate entry of the source.

What was measured:
N-MLV [1] = experiment: N-MLV / B-MLV GFP vector infection of transduced TE671 cells, FACS; format: cell-based, murine leukemia virus; conditions: for N-MLV replication defect (N-tropic restriction by endogenous TRIM5αhu) in cells expressing the construct: TE671 cells, control cells: B-MLV ˜200-fold more infectious than N-MLV
Description: (§1) FIGS. 7a-7c. […] (a) TE671 cells expressing the indicated LPCX derived constructs were infected with GFP-expressing B-MLV and N-MLV vectors at multiple doses. Cells were infected in the presence or absence of As2O3 (3 μM). Two days later, the percentage of infected cells was determined by FACS. (b) OMK cells were transduced with MIG (Vect) or with MIG-TRIM5αhu (T5hu) and challenged with DsRed-expressing N-MLV or B-MLV vectors. Two days later, the percentage of infected cells was determined by FACS.
FIGS. 8a-8c. Effect of TRIMStop on TRIM5αhu antiviral activity. (a) TE671-Vector (Vector) cells and TE671-TRIMStop cells were infected with HIV-1NL-GFP (left panel) or with N- and B-MLV (right panel). Two days later, the percentage of infected (GFP expressing) cells was determined by FACS. (b) Total RNA was prepared from TE671-Vector (Vect), TE671-TRIMCyp (TC), and TE671-TRIMStop (TS), and RT-PCR was used to detect endogenous TRIM5α or TRIMCyp/TRIMStop. RT was performed in the presence (+) or absence (−) of reverse transcriptase. (c) 293T cells were transfected with LPCX (Vect), LPCX-TRIMCyp (TC), or LPCX-TRIMStop (TS), and Western blotting was performed using an antibody specific to TRIM5.
Next, we analyzed MLV replication in TE671-TRIM5αrh, TE671-TRIMCyp, and the control TE671-vector cells.

HIV-1 [2] = format: cell-based, human immunodeficiency virus type 1
Description: (§2) HIV-DsRed and HIV-GFP vectors were produced in 293T cells by co-transfection of CSGW or CSRW with p8.9NΔSB (wild type or G89V mutant) and pMD.G, also at 5:5:1 ratio. HIV/Env-/GFP and SIV/Env-/GFP viruses were produced by cotransfection of the wild type or G89V HIV/Env-/GFP plasmids with pMD.G at a 10:1 ratio. All vectors and viruses were harvested 48 h post-transfection, filtered (0.45-μm filter, Pall Acrodisc), aliquoted, and stored at −80° C. Stocks were normalized by reverse transcriptase activity or p24 ELISA (8).
(§3) Infection assays—Cells were assayed by flow cytometry 48 to 72 h post-infection to determine the percentage of cells that were GFP-positive (FL-1) or DsRed-positive (FL-2). Cells transduced with pMIG vectors and infected with HIV-DsRed were gated to limit the analysis to GFP-positive cells.

CAp30 from N-MLV virions = experiment: CA pull-out of N-MLV virions with GST-TRIM5 fusions; format: binding, murine leukemia virus; conditions: GST fusion produced in 293T cells, purified virions
CAp30 from B-MLV virions = experiment: CA pull-out of B-MLV virions with GST-TRIM5 fusions; format: binding, murine leukemia virus; conditions: GST fusion produced in 293T cells, purified virions
B-MLV = B-MLV DsRed vector challenge of OMK cells transduced with MIG-TRIM5αhu; format: cell-based, murine leukemia virus
Description: as §1
(§4) We also performed the reciprocal experiment, transducing owl monkey OMK cells with TRIM5αhu and challenging them with MLV or HIV-1.

N-MLV [3] = experiment: N-MLV DsRed vector challenge of OMK cells transduced with MIG-TRIM5αhu; format: cell-based, murine leukemia virus
Description: as §1, §4

HIV-1 [4] = experiment: HIV-1-derived CSRW vector challenge of OMK/MIG and OMK/MIG-T5hu cells; format: cell-based, human immunodeficiency virus type 1; conditions: OMK cells expressing TRIM5αhu
Description: as §1, §4

HIV-1NL-GFP = format: cell-based, human immunodeficiency virus type 1; conditions: for HIV-1 cDNA synthesis (Southern blot) / HIV-1 infection (GFP-positive cells by FACS): TE671 cells; for HIV-1 cDNA synthesis (Southern blot): 16 h after infection; for HIV-1 infection (GFP-positive cells by FACS): LPCX vectors
Description: FIG. 6. […] LPCX-based retroviral vectors were used to transduce the indicated genes into human TE671 cells. Vect, Cyp, TS, TC and T5rh designate, respectively, Vector control, owl monkey CypA, TRIMStop, TRIMCyp, and TRIM5αrh. […] One twentieth of the cells were maintained in culture for another day and used to determine the percentage of GFP-positive cells by FACS (bottom of the figure). Total DNA was extracted from the remainder of the cells 16 h after infection, and 5 μg of each DNA sample was analyzed by Southern blotting. The positions of the linear, 1-LTR, and 2-LTR HIV-1 cDNA species are indicated on the left. “Total” DNA refers to a band specific to all HIV-1 cDNA forms, including the integrated DNA.
We transduced human rhabdomyosarcoma TE671 cells (45) with previously described LPCX vectors (reference 5, see also Example 1) bearing cDNAs for TRIM5αrh, TRIMCyp, or owl monkey CypA. Cells were also transduced with a vector expressing TRIMStop, a truncated version of TRIMCyp lacking the CypA domain (see Example 1). Pools of transduced cells were selected in puromycin and then assessed for susceptibility to infection with HIV-1NL-GFP (32). […] We monitored the percentage of infected (GFP-expressing) cells by fluorescence-activated cell sorting (FACS) and the synthesis of viral cDNA in the infected cells using a Southern blot designed to detect full-length, linear viral cDNA and circular viral cDNAs that form in the nucleus (31, 32, 47).

HIV-1 clone NL4-3 = experiment: Spreading HIV-1 NL4-3 infection of transduced Jurkat T cells, supernatant reverse transcriptase activity; format: cell-based, human immunodeficiency virus type 1; conditions: Jurkat T cells transduced with owl monkey TRIMCyp cDNA
Excerpt: FIG. 13. […] Retroviral vectors were used to transduce human Jurkat T cells with the cDNA encoding owl monkey TRIMCyp. Control cells were transduced with vector lacking the cDNA. Cells were challenged with full infectious HIV-1 clone NL4-3. Supernatant was collected and assessed for viral reverse transcriptase activity (a quantitative measure of the amount of virus produced in the culture).

[5] = tested on: TRIM5 orthologues (TRIMCyp, TRIM5αrh, TRIM5αhu, TRIMStop, huTRIMStop); experiment: Yeast two-hybrid system, β-galactosidase activity: TRIM5 orthologues; format: binding; conditions: LexA / B42 fusions, S. cerevisiae EGY48
Excerpt: (§5) FIGS. 9A-9B. TRIMCyp and TRIMStop both bind TRIM5αhu. (A) Yeast two-hybrid system. […] (B) Binding in mammalian cells. TRIM5αhu was fused to GST.

HIV-1 [6] = tested on: HIV-1
Description: (§6) FIGS. 3a-3e. […] WT, wild type. HeLa cells (d) or Rat2 cells (e) transduced with the indicated cDNAs were infected with HIV-1.
(§7) Generation of stable cell lines—To generate stable RNAi knockdown lines, 1 ml of pMH vector-containing media was pelleted onto OMK cells (1,200 g for 72 min) in 12-well plates. Infection was repeated 24 h later. ntTRIMCyp, TRIMStop and ntCypAOM cDNAs were transduced with either pMIG (OMK and HeLa cells) or pLPCX (TE671 and Rat2 cells). pLPCX-infected cells were selected in 1 μg ml^−1 puromycin.
as §3

HIV-1 CA = HIV-1 CA (Human immunodeficiency virus type 1 group M subtype B, UniProt P12493); conditions: detergent-prepared virion cores, affinity chromatography
Description: Retrovirion cores can be liberated from the viral membrane envelope by detergent (54). HIV-1 virion cores were prepared with several different detergents and mixed with recombinant TRIM5 orthologues.

HIV-1 [7] = tested on: HIV-1; remark: listed apart in the source
Description: as §6, §2, §7, §3

HIV-1 Gag = HIV-1 Gag (Human immunodeficiency virus type 1 group M subtype B, UniProt P12493); conditions: LexA / B42 fusions, S. cerevisiae EGY48
Description: (A) Yeast two-hybrid system. […] Pairs of fused LexA and B42 expression plasmids were transformed into Saccharomyces cerevisiae strain EGY48. For each transformant, β-galactosidase activity for three colonies is reported in Miller units with the standard deviation. (B) Binding in mammalian cells.
Fusions of these proteins with LexA and/or B42 were constructed, and the interactions between fusion proteins were analyzed using a previously described system (37) in which reporter gene β-galactosidase activity was assessed with a quantitative assay (43).

HIV-1 [8] = conditions: OMKMH-CypA-147 cells, pMIG vector, HIV-1 DsRed vector
Description: as §7, §3

SIVMAC239 = SIVMAC239 infection of TE671 cells transduced with cDNAs; format: cell-based, simian immunodeficiency virus; conditions: stable TE671 cell lines
Description: as §6, §2, §7, §3

TRIM5αhu = molecular target: T1, TRIM5αhu (Homo sapiens, UniProt Q9C035); experiment: GST pull down from cotransfected 293T cells, Western blotting; format: binding; conditions: glutathione-Sepharose beads, anti-TRIM5 Western blot
T1 construct: expressed in transfected cells; host or cells: 293T
Excerpt: as §5
To investigate TRIM5:TRIMCyp heterodimerization in mammalian cells, we expressed TRIM5αhu in fusion with glutathione-S-transferase (GST) and transfected 293T cells with either GST or GST-TRIM5αhu. These cells were cotransfected with the LPCX plasmid constructs described above that express TRIMCyp or TRIMStop. […] The blot was also probed with an anti-cyclophilin A antibody, confirming the identity of TRIMCyp (FIG. 9b).

T1 sequence (Q9C035 whole entry): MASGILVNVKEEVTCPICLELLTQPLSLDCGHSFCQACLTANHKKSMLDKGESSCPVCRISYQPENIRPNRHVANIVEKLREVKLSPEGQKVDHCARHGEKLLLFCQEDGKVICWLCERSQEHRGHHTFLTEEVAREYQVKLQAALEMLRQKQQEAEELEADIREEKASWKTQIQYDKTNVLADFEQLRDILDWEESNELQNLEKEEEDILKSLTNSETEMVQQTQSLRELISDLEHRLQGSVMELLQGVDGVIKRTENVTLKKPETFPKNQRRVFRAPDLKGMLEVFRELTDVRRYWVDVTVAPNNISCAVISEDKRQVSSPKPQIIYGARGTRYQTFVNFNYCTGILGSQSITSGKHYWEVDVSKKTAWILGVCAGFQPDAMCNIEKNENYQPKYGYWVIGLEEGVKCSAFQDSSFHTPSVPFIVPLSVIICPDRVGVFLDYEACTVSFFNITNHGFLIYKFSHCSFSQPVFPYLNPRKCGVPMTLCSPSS

## O=[As]O[As]=O (centres unmarked) [As2O3]
N-MLV [1]; TE671-TRIM5αrh and TE671-TRIMCyp, As2O3 3 μM
  enhancement of infectivity in cells expressing TRIM5αrh or TRIMCyp: no longer enhanced infectivity
N-MLV [1]; control TE671 cells, As2O3 3 μM
  increase of N-MLV infectivity: ≥ 10 fold

## C/C=C/C[C@@H](C)[C@@H](O)[C@H]1C(=O)N[C@@H](CC)C(=O)N(C)CC(=O)N(C)[C@@H]([C@@H](C)CC)C(=O)N[C@@H](C(C)C)C(=O)N(C)[C@@H](CC(C)C)C(=O)N[C@@H](C)C(=O)N[C@H](C)C(=O)N(C)[C@@H](CC(C)C)C(=O)N(C)[C@@H](CC(C)C)C(=O)N(C)[C@@H](C(C)C)C(=O)N1C [MeIle^4-CsA]
HIV-1 [2]
  HIV-1 infection of OMK cells on drug treatment of target cells: permits HIV-1 to infect OMK cells at an efficiency similar to that of SIV

## TRIM5 lacking the SPRY domain: GST fusion with human TRIM5 lacking the SPRY domain
CAp30 from N-MLV virions
  association of CAp30 from N-MLV virions: did not associate

## TRIM5αhu: human TRIM5α; in Example 3 produced as a GST-fusion protein in 293T cells
CAp30 from B-MLV virions
  association of CAp30 from B-MLV virions: did not associate
B-MLV
  effect on B-MLV: no effect
N-MLV [3]
  restrictive effect on the replication of N-MLV: approximately twofold
HIV-1 [4]
  restriction of HIV-1 compared with control cells: similar
CAp30 from N-MLV virions
  association of CAp30 from N-MLV virions: associated

## TRIM5αrh: alpha isoform of rhesus macaque TRIM5 [reference compound]
HIV-1NL-GFP
  HIV-1 cDNA synthesis (Southern blot): inhibited HIV-1 cDNA synthesis
  HIV-1 infection (GFP-positive cells by FACS): inhibited HIV-1 infection of TE671 cells
N-MLV [1]
  N-MLV replication defect (N-tropic restriction by endogenous TRIM5αhu) in cells expressing the construct: about 20 fold

## TRIMCyp: owl monkey TRIM5-CypA fusion protein, 54-kD, SEQ ID NO:4; ntTRIMCyp is its RNAi-resistant cDNA with silent mutations
HIV-1 clone NL4-3
  protection of human T cells from spreading HIV-1 infection: protected from a spreading, cytopathic HIV-1 infection
[5]
  interaction with TRIM5 orthologues: interacted equally well; also recorded: associates with human TRIM5-α
HIV-1 [6]; pMIG vector
  HIV-1 restriction in transduced HeLa cells: exhibited the same restriction
HIV-1 [6]; rat fibroblasts (Rat2)
  HIV-1 restriction in non-primate cells: functional
HIV-1 CA
  association of HIV-1 CA with TRIM5 orthologue: associated
HIV-1 [7]
  HIV-1 infection / titre in cells expressing the cDNA: highly resistant to HIV-1 infection
HIV-1NL-GFP
  efficiency of inhibition of HIV-1 replication relative to TRIM5αrh: roughly fivefold more efficiently than TRIM5αrh
  HIV-1 cDNA synthesis (Southern blot): inhibited HIV-1 cDNA synthesis
  HIV-1 infection (GFP-positive cells by FACS): inhibited HIV-1 infection of TE671 cells
HIV-1 Gag
  interaction with HIV-1 Gag: interacted equally well
HIV-1 [8]
  HIV-1 restriction after transduction of RNAi-resistant cDNA: restricted HIV-1
SIVMAC239
  SIVMAC239 infection in cells expressing the cDNA: unaffected
N-MLV [1]
  N-MLV replication defect (N-tropic restriction by endogenous TRIM5αhu) in cells expressing the construct: fully abrogated
TRIM5αhu
  association with GST-TRIM5αhu: associated with TRIM5αhu

## sanglifehrin
HIV-1 [2]
  HIV-1 infection of OMK cells on drug treatment of target cells: permits HIV-1 to infect OMK cells at an efficiency similar to that of SIV

B1: TRIMStop: construct in which TRIMCyp has been truncated with a stop codon replacing the first codon of the CypA domain (protein)
chain: MASRILVNIKEEVTCPICLELLTEPLSLDCGHSFCQACITANHKKSMPHQGERSCPLCRISYSSENLRPNRHLVNIVERLREVMLSPEEGQKVDHCAHHGEKLVLFCQQDGNVICWLCERSQEHRGHQTFLVEEVAQKYREKLQVALEMMRQKQKDAEKLEADVREEQASWKIQIQNDKTNIMAEFKKRRDILDCEESKELQNLEKEEKNILKRLVQSENDMVLQTQSVRVLISDLEHRLQGSVMELLQGVDGVIKRIEKVTLQNPKTFLNEKRRIFQTPDLKGTLQVFKEPTEVQRYWDAAAWDLVASA
[5]
  interaction with TRIM5 orthologues: as competent as TRIMCyp
HIV-1 [7]
  HIV-1 infection / titre in cells expressing the cDNA: no effect on HIV-1 titre
HIV-1 Gag
  interaction with HIV-1 Gag: not able to interact with Gag
N-MLV [1]
  N-MLV replication defect (N-tropic restriction by endogenous TRIM5αhu) in cells expressing the construct: did not affect the capacity of TE671 cells to restrict N-MLV replication
TRIM5αhu
  association with GST-TRIM5αhu: associated with TRIM5αhu
